Columns and labels:
[1] = test system: Cell viability
[2] = target: T1, 229E Mpro (Human coronavirus 229E, UniProt P0C6X1); test: 229E Mpro assay (Table 3); type: biochemical, Human Coronavirus (HCov) 229E
T1 construct: Mpro
Procedure: Compounds are assayed using standard methods to assess compound activity and IC50. […] The assay buffer contains 20 mM of Tris-HCl (pH 7.3), 100 mM of NaCl, 1 mM of EDTA, 5 mM of TCEP and 0.1% BSA.
The compounds are added to an assay plate.
IC50 values of compounds are calculated with the GraphPad Prism software using the nonlinear regression model of log(inhibitor) vs. response—Variable slope (four parameters). The inhibition activity is calculated using the formula below, IC50 values is calculated using the Inhibition % data. Inhibition %=[(Sample−Average ZPE)/(Average HPE−Average ZPE)]*100%^# • ^#HEP: Hundred percent effect controls. […] Containing enzyme+substrate, no compound. • Sample: Compound activity testing wells. Containing compound+enzyme+substrate. • BG: Compound background control wells. Containing compound+substrate, no enzyme.

[3] = test system: HCoV 229E; test: HCoV 229E cytopathic effect (CPE) assay, CellTiter Glo; type: cell-based, Human Coronavirus (HCov) 229E; conditions: protection from virus-induced CPE
Procedure: The antiviral activity of compounds is calculated based on the protection of the virus-induced CPE at each concentration normalized by the virus control.
Reagents and instruments used in this assay include luminescent cell viability assay kit CellTiter Glo (Promega) and Microplate Reader Synergy2 (BioTek).
Cytopathic effect (CPE) is measured by CellTiter Glo following the manufacturer's manual. The antiviral activity of compounds is calculated based on the protection of the virus-induced CPE at each concentration normalized by the virus control.

[4] = target: COVID-19 (nCoV-2019, SARS-CoV2) Mpro (Severe acute respiratory syndrome coronavirus 2, UniProt P0DTD1); test: SARS-CoV2 Mpro enzymatic assay; type: biochemical; conditions: 25 nM Mpro, 25 μM substrate

T1 sequence (P0C6X1 2966-3267): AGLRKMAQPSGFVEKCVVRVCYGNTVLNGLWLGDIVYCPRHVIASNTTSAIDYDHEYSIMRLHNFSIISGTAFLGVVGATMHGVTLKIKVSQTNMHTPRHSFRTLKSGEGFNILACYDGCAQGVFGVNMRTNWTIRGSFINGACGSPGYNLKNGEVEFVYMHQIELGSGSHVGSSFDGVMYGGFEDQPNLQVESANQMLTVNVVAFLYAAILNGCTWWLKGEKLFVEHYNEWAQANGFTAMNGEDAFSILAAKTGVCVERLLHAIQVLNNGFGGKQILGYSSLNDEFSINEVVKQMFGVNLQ

## CC(C)CC(NC(=O)c1nc2ncccc2[nH]1)C(=O)NC(C#N)CC1CCNC1=O (single isomer, unassigned) [130 (Isomer 1)]
[1]
  CC50: > 30 µM

## COc1cccc2[nH]c(C(=O)NC(CC(C)(F)F)C(=O)NC(C#N)CC3CCNC3=O)cc12 (single isomer, unassigned) [497 (Isomer 2)]
[2]
  EC50: < 2 µM
[3]
  EC50: < 2 µM

## COc1cccc2[nH]c(C(=O)N3CC4(C[C@H]3C(=O)N[C@H](C#N)C[C@@H]3CCCNC3=O)CC(F)(F)C4)cc12 (single isomer, unassigned) [723 (Isomer 1)]
[4]
  IC50: 10 to 30 µM
[2]
  EC50: 10 to 30 µM

## COc1cccc2[nH]c(C(=O)N3CC4(C[C@H]3C(=O)N[C@H](C#N)C[C@@H]3CCCNC3=O)CC(F)(F)C4)cc12 (single isomer, unassigned) [723 (Isomer 2)]
[4]
  IC50: < 2 µM
[2]
  EC50: < 2 µM

## N#C[C@H](C[C@@H]1CCCNC1=O)NC(=O)[C@@H]1CC2(CN1C(=O)c1cc3cccc(Cl)c3[nH]1)CC(F)(F)C2 (single isomer, unassigned) [743 (Isomer 1)]
[4]
  IC50: > 30 µM
[2]
  EC50: > 30 µM

## N#C[C@H](C[C@@H]1CCCNC1=O)NC(=O)[C@@H]1CC2(CN1C(=O)c1cc3cccc(Cl)c3[nH]1)CC(F)(F)C2 (single isomer, unassigned) [743 (Isomer 2)]
[4]
  IC50: < 2 µM
[2]
  EC50: < 2 µM

## CC1(C)CCC(CC(C#N)NC(=O)[C@H](CC2CC2)NC(=O)c2cc3cccc(Cl)c3[nH]2)C(=O)N1 (single isomer, unassigned) [749A (Isomer 1)]
[4]
  IC50: < 2 µM

## COC(=O)NS(=O)(=O)n1nccc1C(=O)NC(CC1CC1)C(=O)NC(C#N)CC1CCCNC1=O (single isomer, unassigned) [787A (Isomer 2)]
[4]
  IC50: < 2 µM
[2]
  EC50: 2 to 10 µM

## CC1(C)CC(C[C@@H](C#N)NC(=O)[C@H](CC2CC2)NC(=O)c2cc3cccc(Cl)c3[nH]2)C(=O)N1 (single isomer, unassigned) [1053 (Isomer 3)]
[2]
  EC50: 2 to 10 µM

## CC1(C)CC(CC(C#N)NC(=O)C(CC2CC2)NC(=O)c2cc3cccc(Cl)c3[nH]2)C(=O)N1 (single isomer, unassigned) [1053 (Isomer 4)]
[2]
  EC50: < 2 µM

## COc1cccc2[nH]c(C(=O)N[C@H](CC3CC3)C(=O)N[C@H](C#N)C[C@@H]3CCC(C)(C)NC3=O)cc12 (single isomer, unassigned; isomer 1) [787A (Isomer 1)]
[2]
  EC50: 2 to 10 µM

## N#C[C@H](C[C@@H]1CCNC1=O)NC(=O)[C@@H]1CS[C@H]2CC[C@H](NC(=O)OCc3ccccc3)C(=O)N21 [Compound 457, Benzyl((3R,6S,8aS)-3-(((S)-1-cyano-2-((S)-2-oxopyrrolidin-3-yl)ethyl)carbamoyl)-5-oxohexahydro-2H-thiazolo[3,2-a]pyridin-6-yl)carbamate]
[2]
  EC50: > 30 µM

## Cc1cc(C(=O)N[C@H]2CC[C@@H]3SC[C@@H](C(=O)N[C@H](C#N)C[C@@H]4CCNC4=O)N3C2=O)no1 [Compound 459, N-((3R,6S,8aS)-3-(((S)-1-cyano-2-((S)-2-oxopyrrolidin-3-yl)ethyl)carbamoyl)-5-oxohexahydro-2H-thiazolo[3,2-a]pyridin-6-yl)-5-methylisoxazole-3-carboxamide]
[2]
  EC50: > 30 µM

## N#C[C@H](C[C@@H]1CCNC1=O)NC(=O)[C@H](CC1CC1)NC(=O)c1nc2c(Cl)cc(Cl)cc2[nH]1 [Compound 525, 4,6-dichloro-N-[(1S)-2-[[(1S)-1-cyano-2-[(3S)-2-oxopyrrolidin-3-yl]ethyl]amino]-1-(cyclopropylmethyl)-2-oxo-ethyl]-1H-benzimidazole-2-carboxamide]
[2]
  EC50: < 2 µM

## N#C[C@H](C[C@@H]1CCNC1=O)NC(=O)[C@H](CC1CC1)NC(=O)c1cc2ccc(Cl)cc2[nH]1 [Compound 529, 6-chloro-N-[(1S)-2-[[(1S)-1-cyano-2-[(3S)-2-oxopyrrolidin-3-yl]ethyl]amino]-1-(cyclopropylmethyl)-2-oxo-ethyl]-1H-indole-2-carboxamide]
[2]
  EC50: < 2 µM

## N#C[C@H](C[C@@H]1CCNC1=O)NC(=O)[C@H](CC1CC1)NC(=O)c1cc2c(Cl)ccc(Cl)c2[nH]1 [Compound 691, 4,7-dichloro-N-[(1S)-2-[[(1S)-1-cyano-2-[(3S)-2-oxopyrrolidin-3-yl]ethyl]amino]-1-(cyclopropylmethyl)-2-oxo-ethyl]-1H-indole-2-carboxamide]
[2]
  EC50: < 2 µM

## COc1cc(Cl)c2[nH]c(C(=O)N[C@@H](CC3CC3)C(=O)N[C@H](C#N)C[C@@H]3CCNC3=O)cc2c1 [Compound 695, 7-chloro-N-[(1S)-2-[[(1S)-1-cyano-2-[(3S)-2-oxopyrrolidin-3-yl]ethyl]amino]-1-(cyclopropylmethyl)-2-oxo-ethyl]-5-methoxy-1H-indole-2-carboxamide]
[2]
  EC50: < 2 µM
